Measured values from PubChem BioAssay (NCI).
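Five concentrations, 48 hours, 96-well plates. The concentration for full growth arrest is given as TGI.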

Legend:
Assay in all cases: NCI anticancer screen, dose series, 48 h
[1] = test system: 786-0 renal
[2] = test system: TK-10 renal
[3] = test system: LOX IMVI melanoma
[4] = test system: HS 578T breast
[5] = test system: RPMI-8226 leukemia
[6] = test system: SK-OV-3 ovarian
[7] = test system: PC-3 prostate
[8] = test system: SF-268 CNS
[9] = test system: SK-MEL-28 melanoma
[10] = test system: KM12 colon
[11] = test system: HL-60(TB) leukemia
[12] = test system: SF-295 CNS
[13] = test system: COLO 205 colon
[14] = test system: MCF7 breast
[15] = test system: ACHN renal
[16] = test system: SK-MEL-5 melanoma
[17] = test system: HT29 colon
[18] = test system: IGROV1 ovarian
[19] = test system: HCT-116 colon
[20] = test system: NCI-H23 lung
[21] = test system: HOP-92 NSCLC
[22] = test system: SF-539 CNS
[23] = test system: CCRF-CEM leukemia
[24] = test system: NCI-H460 lung
[25] = test system: T-47D breast
[26] = test system: UACC-62 melanoma
[27] = test system: HCC-2998 colon
[28] = test system: UO-31 renal
[29] = test system: MALME-3M melanoma
[30] = test system: OVCAR-8 ovarian
[31] = test system: NCI/ADR-RES ovarian
[32] = test system: A498 renal
[33] = test system: SK-MEL-2 melanoma
[34] = test system: UACC-257 melanoma
[35] = test system: NCI-H226 lung
[36] = test system: DU-145 prostate
[37] = test system: BT-549 breast
[38] = test system: SNB-19 CNS
[39] = test system: MDA-MB-435
[40] = test system: SW-620 colon
[41] = test system: M14 melanoma
[42] = test system: K-562 leukemia
[43] = test system: HCT-15 colon
[44] = test system: SNB-75 CNS
[45] = test system: OVCAR-5 ovarian
[46] = test system: A549 NSCLC
[47] = test system: SN12C renal
[48] = test system: MDA-N
[49] = test system: NCI-H522 lung
[50] = test system: MDA-MB-231 breast
[51] = test system: EKVX NSCLC
[52] = test system: MOLT-4 leukemia
[53] = test system: OVCAR-3 ovarian
[54] = test system: CAKI-1 renal
[55] = test system: OVCAR-4 ovarian
[56] = test system: U251 CNS
[57] = test system: SR leukemia
[58] = test system: HOP-62 NSCLC
[59] = test system: RXF 393 renal

Measured: TGI

COC(=O)C(=O)C(C(=O)C(=O)Nc1cccc(OC)c1)c1nc2ccc(Cl)cc2[nH]c1=O (stereo not drawn)
> 100 µM: [1] | [2] | [3] | [4] | [5] | [6] | [7] | [8] | [9] | [10] | [11] | [12] | [13] | [14] | [15] | [16] | [17] | [18] | [19] | [20] | [21] | [22] | [23] | [24] | [25] | [26] | [27] | [28] | [29] | [30] | [31] | [32] | [33] | [34] | [35] | [36] | [37] | [38] | [39] | [40] | [41] | [42] | [43] | [44] | [45] | [46] | [47] | [48] | [49] | [50] | [51] | [52] | [53] | [54] | [55] | [56]

COC(=O)[C@@H]1Cc2ccc(OC)c(c2)OCCC(=O)N1
> 100 µM: [1] | [2] | [4] | [5] | [6] | [7] | [8] | [9] | [10] | [12] | [13] | [14] | [15] | [16] | [17] | [18] | [19] | [20] | [23] | [25] | [26] | [27] | [28] | [29] | [30] | [31] | [33] | [34] | [35] | [36] | [37] | [57] | [38] | [58] | [39] | [40] | [41] | [42] | [43] | [44] | [45] | [46] | [48] | [49] | [59] | [50] | [51] | [52] | [53] | [54] | [55] | [56]
